Results reported in patent US8309582B2, “Small molecule Bcl-Xl/Bcl-2 binding inhibitors” (The Ohio State University Research Foundation, priority 2004, dated 2012).
Like-named read-outs stand apart in the source and are kept apart here.

What was measured:
Bcl-xL = biological target: T1, Bcl-xL (Homo sapiens, UniProt Q07817); assay: Competitive fluorescence polarization assay, displacement of Flu-BakBH3 peptide from Bcl-xL; type: binding
T1 construct: fused on or other part: His tag
Procedure: (§1) Competitive Fluorescence Polarization Assay. The binding affinity of the test agent to Bcl-2 and Bcl-xL was analyzed by a competitive fluorescence polarization assay, in which the ability of the agent to displace the binding of a Bak BH3-domain peptide to either Bcl-2 or Bcl-xL was determined. Flu-BakBH3, a Bak-BH3 peptide labeled at the N-terminus with fluorescein, was purchased from Genemed Synthesis (San Francisco, Calif.). C-Terminal-truncated, His-tagged Bcl-xL was purchased from EMD Biosciences (San Diego, Calif.), and soluble GST-fused Bcl-2 was obtained from Santa Cruz (Santa Cruz, Calif.). The KD determination was carried out in a dual-pathlength quartz cell with readings taken at […] at room temperature using a luminescence spectrometer according to an established procedure (17). Determination of IC50 values. Data from cell viability and FP assays were analyzed by using the CalcuSyn software (Biosoft, Ferguson, Mo.) to determine IC50 values, in which the calculation was based on the medium effect equation (18), i.e., Log(fa/fu)=m log(D)−m log(Dm) (equation 1), where fa and fu denote fraction affected and unaffected, respectively; m represents the Hill-type coefficient signifying the sigmoidicity of the dose-effect curve; D and Dm are the dose used and IC50, respectively.

Bcl-2 = Bcl-2 (Homo sapiens, UniProt P10415); assay: Competitive fluorescence polarization assay, displacement of Flu-BakBH3 peptide from Bcl-2; type: binding
Procedure: as §1

PC-3 cells = assay: Cell viability analysis (MTT) in PC-3 cells; type: cell-based; details: read-out: IC50 (μM) PC3
Procedure: Cell viability analysis. The effect of individual test agents on cell viability was assessed by using the MTT {[3-(4,5-dimethylthiazol-2-yl)-2,5-diphenyl-2H-tetrazolium bromide]} assay in six to twelve replicates. […] Controls received DMSO vehicle at a concentration equal to that in drug-treated cells. […] Supernatants were removed from the wells, and the reduced MTT dye was solubilized in 200 μl/well DMSO. Absorbance at 570 nm was determined on a plate reader.
(§2) Determination of IC50 values. Data from cell viability and FP assays were analyzed by using the CalcuSyn software (Biosoft, Ferguson, Mo.) to determine IC50 values, in which the calculation was based on the medium effect equation (18), i.e., Log(fa/fu)=m log(D)−m log(Dm) (equation 1), where fa and fu denote fraction affected and unaffected, respectively; m represents the Hill-type coefficient signifying the sigmoidicity of the dose-effect curve; D and Dm are the dose used and IC50, respectively.

LNCaP cells = assay: Cell viability analysis (MTT) in LNCaP cells; type: cell-based; details: Homo sapiens
Procedure: (§3) Cell viability analysis. The effect of individual test agents on cell viability was assessed by using the MTT {[3-(4,5-dimethylthiazol-2-yl)-2,5-diphenyl-2H-tetrazolium bromide]} assay in six to twelve replicates. Cells were seeded and incubated in 96-well, flat-bottomed plates in serum-free media for 24 h, and were exposed to various concentrations of test agents dissolved in DMSO (final concentration, 0.1%) in serum-free RPMI 1640 medium for different time intervals. Controls received DMSO vehicle at a concentration equal to that in drug-treated cells. The medium was removed, replaced by 200 μl of 0.5 mg/ml of MTT in 10% FBS-containing RPMI-1640 medium, and cells were incubated in the CO2 incubator at 37° C. for 2 h. Supernatants were removed from the wells, and the reduced MTT dye was solubilized in 200 μl/well DMSO. Absorbance at 570 nm was determined on a plate reader.
as §2

[1] = MTT assay (IC50 for MTT, Tables 1-9); type: cell-based; details: cell line and unit inferred
Procedure: as §3, §2

[2] = WB (IC50 for WB, Tables 1-9); type: cell-based; details: marker, cell line and unit inferred
Procedure: (§4) Immunoblotting. Cells in T-75 flasks were collected by scraping, and suspended in 60 μl of phosphate-buffered saline (PBS). Two μl of the suspension was taken for protein analysis using the Bradford assay kit (Bio-Rad, Hercules, Calif.). To the remaining solution was added the same volume of 2×SDS-PAGE sample loading buffer (100 mM Tris-HCl, pH 6.8, 4% SDS, 5% β-mercaptoethanol 20% glycerol, and 0.1% bromophenol blue). The mixture was sonicated briefly, and boiled for 5 min. Equal amounts of proteins were loaded onto 10% SDS-PAGE gels.
(§5) After electrophoresis, protein bands were transferred to nitrocellulose membranes in a semidry transfer cell. The transblotted membrane was washed twice with Tris-buffered saline (TBS) containing 0.1% Tween 20 (TBST). After blocking with TBST containing 5% nonfat milk for 40 min, the membrane was incubated with the appropriate primary antibody in TBST-1% nonfat milk at 4° C. overnight. All primary antibodies were diluted 1:1000 in 1% nonfat milk-containing TBST. After treatment with the primary antibody, the membrane was washed three times with TBST for a total of 15 min, followed by incubation with goat anti-rabbit or anti-mouse IgG-horseradish peroxidase conjugates (diluted 1:5000) for 1 h at room temperature and three washes with TBST for a total of 1 h. The immunoblots were visualized by enhanced chemiluminescence.

PPARγ = biological target: T2, PPARγ (Homo sapiens, UniProt P37231); assay: Analysis of PPARγ activation (transcription factor ELISA, PC-3 nuclear extracts); type: cell-based; details: PC-3 cells, 10 μM, 48 h, versus DMSO vehicle
T2 construct: endogenous in cells; host or cells: PC-3 prostate cancer cells
T2 sequence (P37231 1-505): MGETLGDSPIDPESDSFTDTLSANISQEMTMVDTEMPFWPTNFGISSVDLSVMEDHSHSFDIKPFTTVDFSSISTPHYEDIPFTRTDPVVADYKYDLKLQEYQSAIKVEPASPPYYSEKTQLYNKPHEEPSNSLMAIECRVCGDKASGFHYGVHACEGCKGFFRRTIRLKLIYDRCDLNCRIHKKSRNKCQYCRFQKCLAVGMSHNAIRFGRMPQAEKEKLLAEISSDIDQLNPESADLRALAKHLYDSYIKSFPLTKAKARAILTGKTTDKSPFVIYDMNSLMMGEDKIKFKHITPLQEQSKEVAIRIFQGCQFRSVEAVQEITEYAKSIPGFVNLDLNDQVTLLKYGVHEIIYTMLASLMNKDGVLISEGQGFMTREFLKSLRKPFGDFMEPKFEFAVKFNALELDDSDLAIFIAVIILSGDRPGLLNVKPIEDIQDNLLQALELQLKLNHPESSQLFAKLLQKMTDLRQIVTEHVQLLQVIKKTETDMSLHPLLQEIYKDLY
Procedure: Analysis of PPARγ activation. The analysis was carried out by using a PPARγ transcription factor ELISA kit (Active Motif, Carlsbad, Calif.), in which an oligonucleotide containing the peroxisome proliferator response element (PPRE) was immobilized onto a 96-well plate. PPARs contained in nuclear extracts bind specifically to this oligonucleotide and are detected through an antibody directed against PPARγ. […] Cells were collected, and nuclear extracts were prepared with a Nuclear Extract kit (Active Motif, Carlsbad, Calif.). Nuclear extracts of the same protein concentration from individual treatments were subject to the PPARγ transcription factor ELISA according to the manufacturer's instruction.

PC-3 xenograft tumors = assay: Xenograft tumor growth (PC-3 tumors in nude mice)
Procedure: Xenograft tumor growth. Male NCr athymic nude mice (5-7 weeks of age) were obtained from the National Cancer Institute (Frederick, Md.). […] All experimental procedures utilizing these mice were performed in accordance with protocols approved by the Institutional Laboratory Animal Care and Use Committee of The Ohio State University.
Each mouse was inoculated subcutaneously in the right flank with 5×10^5 PC-3 cells suspended in 0.1 ml of serum-free medium containing 30% Matrigel (BD Biosciences, Bedford, Mass.) under isoflurane anesthesia. […] Controls received vehicle consisting of 0.5% methylcellulose and 0.1% polysorbate 80 in sterile water. The volume of drug or vehicle administered to each mouse was 0.02 ml/gram body weight. Tumors were measured weekly using calipers and their volumes calculated using a standard formula: width^2×length×0.52. Body weights were measured weekly.
Statistical analysis. […] Tumor growth data are expressed as mean tumor volumes±SE. For all data, differences were considered significant at P<0.05. Statistical procedures were performed using SPSS for Windows (SPSS, Inc., Chicago, Ill.).

Bcl-2/Bak = biological target: T3, Bcl-2/Bak (Homo sapiens, UniProt P10415); assay: Co-immunoprecipitation of Bak with Bcl-2 in PC-3 cells; type: cell-based; details: 50 μM, 12 h, compared to DMSO control
T3 construct: endogenous in cells; host or cells: PC-3 prostate cancer cells
Procedure: (§6) Co-immunoprecipitation. […] After centrifugation at 13000×g for 15 min, the supernatants were collected, pre-incubated with protein A-Sepharose (Sigma, St. Louis, Mo.) for 15 min, and centrifuged at 1000×g for 5 min. The supernatants were exposed to Bcl-2 or Bcl-xL antibodies in the presence of protein A-Sepharose at 4° C. for 2 h. After brief centrifugation, protein A-Sepharose were collected, washed with the aforementioned lysis buffer 2 times, suspended in 2×SDS sample buffer, and subjected to Western blot analysis with antibodies against Bak.

Bcl-xL/Bak = biological target: T4, Bcl-xL/Bak (Homo sapiens, UniProt Q07817); assay: Co-immunoprecipitation of Bak with Bcl-xL in PC-3 cells; type: cell-based; details: 50 μM, 12 h, compared to DMSO control
T4 construct: endogenous in cells; host or cells: PC-3 prostate cancer cells
Procedure: as §6

caspase-9 = assay: Caspase-9 activation in PC-3 cells (Western blot); type: cell-based; details: 24 h
Procedure: as §4, §5

[3] = inhibition of Bak BH3 peptide binding to Bcl-xL, FP, read-out: IC50 Bcl-xl/Bak
[4] = inhibition of Bak BH3 peptide binding to Bcl-2, FP, read-out: IC50 Bcl-2/Bak

T1 sequence (Q07817 1-209 limits assumed): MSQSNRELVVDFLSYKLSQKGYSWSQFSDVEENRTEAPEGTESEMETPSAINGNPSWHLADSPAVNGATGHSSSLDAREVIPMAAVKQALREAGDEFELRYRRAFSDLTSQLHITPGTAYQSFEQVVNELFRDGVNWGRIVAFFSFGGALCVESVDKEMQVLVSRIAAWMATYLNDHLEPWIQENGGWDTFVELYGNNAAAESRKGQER
Bcl-2, sequence (P10415 whole entry): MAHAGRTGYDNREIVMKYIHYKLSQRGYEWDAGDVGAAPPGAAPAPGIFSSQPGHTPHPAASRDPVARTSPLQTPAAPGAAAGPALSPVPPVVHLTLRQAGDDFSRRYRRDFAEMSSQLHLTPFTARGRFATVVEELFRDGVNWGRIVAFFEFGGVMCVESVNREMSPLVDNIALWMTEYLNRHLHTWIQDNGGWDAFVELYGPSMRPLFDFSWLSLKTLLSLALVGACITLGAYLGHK
T4 sequence (Q07817 whole entry): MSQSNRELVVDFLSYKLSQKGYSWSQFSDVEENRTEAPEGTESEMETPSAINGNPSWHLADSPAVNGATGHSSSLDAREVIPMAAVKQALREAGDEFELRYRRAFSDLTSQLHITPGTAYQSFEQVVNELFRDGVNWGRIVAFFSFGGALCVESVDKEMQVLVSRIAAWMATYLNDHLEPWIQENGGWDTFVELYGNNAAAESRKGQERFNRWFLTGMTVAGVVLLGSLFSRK
T3 sequence (P10415 whole entry): as the sequence (P10415 whole entry) above

| SMILES | IC50 (Bcl-xL; [3]) | IC50 (Bcl-2; [4]) | IC50 (PC-3 cells; Homo sapiens, PC-3, PC-3 cells) | IC50 [1] | IC50 [2] | activity in PPARγ activation (PPARγ) | further results |
| --- | --- | --- | --- | --- | --- | --- | --- |
| Cc1c(C)c2c(c(C)c1O)CCC(C)(COc1ccc(CC3SC(=O)NC3=O)cc1)O2 (centres unmarked) [TG, troglitazone, reference compound] | 22 ± 1 µM | 22 ± 1 µM | 30 ± 2 µM | – | – | – | IC50 (LNCaP cells): 22 ± 3 µM |
| Cc1c(C)c2c(c(C)c1OC/C=C/c1ccccc1)CCC(C)(COc1ccc(/C=C3\SC(=O)NC3=O)cc1)O2 (centres unmarked) [TG-10] | 13 ± 0.9 µM | 19 ± 0.8 µM | 19 ± 0.5 µM | 19 µM | > 7.5 µM | – | – |
| Cc1c(C)c2c(c(C)c1OC(=O)CCC(=O)O)CCC(C)(COc1ccc(/C=C3\SC(=O)NC3=O)cc1)O2 (centres unmarked) [TG-13] | 28 ± 1.4 µM | 30 ± 1.5 µM | 22 ± 0.6 µM | > 50 µM | > 7.5 µM | – | – |
| CC(C)=CCOc1c(C)c(C)c2c(c1C)CCC(C)(COc1ccc(/C=C3\SC(=O)NC3=O)cc1-c1ccc(C(F)(F)F)cc1)O2 (centres unmarked) [TG-31] | 4.9 ± 1.2 µM | 4.7 ± 2 µM | 30 ± 1.1 µM | > 50 µM | > 7.5 µM | – | – |
| CCc1ccc(-c2cc(/C=C3\SC(=O)NC3=O)ccc2OCC2(C)CCc3c(C)c(OCC=C(C)C)c(C)c(C)c3O2)cc1 (centres unmarked) [TG-33] | 18 ± 0.8 µM | 21 ± 1.4 µM | 17 ± 0.9 µM | > 50 µM | > 7.5 µM | – | – |
| CC(C)=CCOc1c(C)c(C)c2c(c1C)CCC(C)(COc1ccc(/C=C3\SC(=O)NC3=O)cc1Br)O2 (centres unmarked) [TG-88] | 1.8 ± 0.2 µM | 2.8 ± 0.3 µM | 2.5 ± 0.2 µM | – | > 7.5 µM | lacked appreciable activity | IC50 (PC-3 cells; PC-3 cells): 4.2 ± 0.2 µM; extent of tumor growth inhibition (PC-3 xenograft tumors; 100 mg/kg/day oral, after 63 days of treatment): 50%; extent of tumor growth inhibition (PC-3 xenograft tumors; 200 mg/kg/day oral, after 63 days of treatment): 61%; tolerability, signs of toxicity (PC-3 xenograft tumors; 100 and 200 mg/kg/day oral, nude mice): without observable signs of toxicity; body weights (PC-3 xenograft tumors; 100 and 200 mg/kg/day oral, throughout the course of study): stable body weights; gross pathology at necropsy (PC-3 xenograft tumors; after 63 days of treatment): No gross pathological abnormalities |
| CC1(COc2ccc(/C=C3\SC(=O)NC3=O)cc2)CCCCC1 [Δ2-CG, 5-[4-(1-methyl-cyclohexylmethoxy)-benzylidene]-thiazolidine-2,4-dione] | 17 ± 2 µM | 22 ± 3 µM | 15 ± 1.2 µM | 70 µM | 13 µM | completely devoid of the ligand binding activity | – |
| CCc1ccc(CCOc2ccc(/C=C3\SC(=O)NC3=O)cc2)nc1 [Δ2-PG, 5-{4-[2-(5-ethyl-pyridin-2-yl)-ethoxy]-benzylidene}-thiazolidine-2,4-dione] | > 50 µM | > 50 µM | > 50 µM | – | – | completely devoid of the ligand binding activity | IC50 (Bcl-xL; unit inferred, read-out: IC50 for inhibiting BH3-mediated protein interactions (Bcl-xL)): > 50 µM; IC50 (Bcl-2; unit inferred, read-out: IC50 for inhibiting BH3-mediated protein interactions (Bcl-2)): > 50 µM |
| Cc1c(C)c2c(c(C)c1O)CCC(C)(COc1ccc(/C=C3\SC(=O)NC3=O)cc1)O2 (centres unmarked) [Δ2-TG, 5-[4-(6-hydroxy-2,5,7,8-tetramethyl-chroman-2-ylmethoxy)-benzylidene]-2,4-thiazolidine-dione] | 18 ± 1 µM | 18 ± 1 µM | 20 ± 2 µM | – | 22 µM | completely devoid of the ligand binding activity | IC50 (LNCaP cells): 14 ± 1 µM; level of Bak associated with Bcl-2 (Bcl-2/Bak): significantly reduced; level of Bak associated with Bcl-xL (Bcl-xL/Bak): significantly reduced; caspase-9 activation (caspase-9): dose-dependent |
